Article PMC8305717, “4-Phenethyl-1-Propargylpiperidine-Derived Dual Inhibitors of Butyrylcholinesterase and Monoamine Oxidase B” (Molecules, 2021)
“And” between values parts separate entries of the source, which are not always exact repeats. Equal values may be shown once. “Also recorded” adds a separate entry of the source.

Experiments:
MAO-B = conditions: binds covalently to N5 of FAD, crystal complex; cited from earlier work
hMAO-A = biological target: T1, hMAO-A (Homo sapiens, UniProt P21397); test: HRP-Amplex Red coupled fluorimetric assay, hMAO-A; assay type: biochemical; conditions: 15 min incubation at 37 °C; for remaining activity at 100 µM: 0.25 h, residual activity at 100 µM compound, RA above 50% considered inactive, read-out: RA ± SD (%) at 100 µM, hMAO-A; for IC50: 3 independent experiments, read-out: IC50 ± SEM, hMAO-A
T1 construct: purchased Sigma Aldrich; host or cells: BTI-TN-5B1-4 insect cells
T1 sequence (P21397 1-527): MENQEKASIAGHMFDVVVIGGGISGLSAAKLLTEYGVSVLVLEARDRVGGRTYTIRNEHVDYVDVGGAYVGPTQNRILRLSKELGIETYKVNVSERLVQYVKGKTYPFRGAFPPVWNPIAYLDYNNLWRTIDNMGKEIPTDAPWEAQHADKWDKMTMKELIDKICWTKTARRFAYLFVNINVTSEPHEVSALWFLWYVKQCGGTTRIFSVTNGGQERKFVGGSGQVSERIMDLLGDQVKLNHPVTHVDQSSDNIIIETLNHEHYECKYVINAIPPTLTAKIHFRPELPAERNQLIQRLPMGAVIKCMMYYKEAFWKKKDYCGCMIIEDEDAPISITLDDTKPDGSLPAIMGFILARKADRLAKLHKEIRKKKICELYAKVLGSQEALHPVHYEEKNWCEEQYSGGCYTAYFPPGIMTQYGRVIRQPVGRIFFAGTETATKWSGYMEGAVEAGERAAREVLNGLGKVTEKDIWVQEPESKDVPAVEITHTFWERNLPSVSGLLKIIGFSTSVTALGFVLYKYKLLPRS
Experimental: (§1) Inhibitory potencies against human (h)AChE and hBChE were determined using the Ellman method and inhibitory potencies against hMAO-A and hMAO-B were determined with horseradish peroxidase (HRP)-Amplex Red coupled assay.
(§2) The effects of the test compounds on hMAO were investigated using a fluorimetric assay. Recombinant hMAO, expressed in BTI-TN-5B1-4 insect cells, p-tyramine hydrochloride, and horse-radish peroxidase type II were purchased from Sigma Aldrich, whereas Amplex Red was synthesized as reported previously.
(§3) In brief, 100 µL 50 mM sodium phosphate buffer (pH 7.4, 0.05 vol.% Triton X-114) containing the compounds or the reference inhibitors and hMAO were incubated for 15 min at 37 °C. The reaction was started by adding Amplex Red (final concentration, 250 µM), horseradish peroxidase (final activity, 2 U/mL), and p-tyramine (final concentration, 1 mM). The fluorescence increase (λex = 530 nm, λem = 590 nm) at 37 °C was monitored for 20 min. DMSO was used for control experiments. To determine the blank value (b), phosphate-buffered solution replaced the enzyme. Each measurement was performed in duplicate. The inhibitory potencies were expressed as the residual activities (RA) and IC50 values as described in Section 3.2.1. For the reversibility assay, the previously described protocol was followed.

hAChE = biological target: T2, hAChE (Homo sapiens, UniProt P22303); test: Ellman method cholinesterase assay, hAChE; assay type: biochemical; conditions: residual activity at 100 µM compound; 5-min pre-incubation; RA above 50% considered inactive; read-out: RA ± SD (%) at 100 µM, hAChE
T2 construct: gift from Xavier Brazzolotto, Florian Nachon and José Dias (IRBA, Brétigny-sur-Orge, France)
Experimental: as §1
(§4) The inhibitory potencies of the compounds against the ChEs were determined using the Ellman method. 5,5′-Dithiobis (2-nitrobenzoic acid) (Ellman’s reagent; DTNB, St. Louis, MO, USA), butyrylthiocholine iodide, and acetylthiocholine iodides were from Sigma-Aldrich. Recombinant hAChE and hBChE at the stock concentration of 16.5 mg/mL and 14.5 mg/mL, respectively, were kindly donated by Xavier Brazzolotto, Florian Nachon, and José Dias (IRBA, Brétigny-sur-Orge, France). The enzyme solutions were prepared by dilution of the concentrated stocks in 0.1 M phosphate-buffered solution (pH 8.0). The reactions were carried out in a final volume of 300 µL of 0.1 M phosphate-buffered solution, pH 8.0, containing 370 µM DTNB, 500 μM butyrylthiocholine/acetylthiocholine, and approximately 1 nM or 50 pM hBChE or hAChE, respectively. The reactions were started by the addition of the substrate after 5-min pre-incubation at room temperature. For time-dependency measurements of hBChE inhibition, the pre-incubation time was varied (i.e., 1 min, 5 min, 15 min, 30 min). The final content of the organic solvent (DMSO) was always 1%. The formation of the yellow 5-thio-2-nitrobenzoate anion as a result of the reaction of DTNB with the thiocholines was monitored for 1 min as the change in absorbance at 412 nm, using a 96-well microplate reader (SynergyTM H4; BioTek Instruments, Inc., USA). The initial velocities in the presence (vi) and the absence (vo) of the test compounds were calculated. The inhibitory potencies were expressed as the residual activities, according to RA = (vi − b)/(vo − b), where b is the blank value using phosphate buffer without ChEs. […] The IC50 values were obtained by plotting the residual ChEs activities against the applied inhibitor concentrations, with the experimental data fitted to a four-parameter logistic function (GraphPad Prism 9.0; GraphPad Software Inc., San Diego, CA, USA).

hBChE [1] = biological target: T3, hBChE (Homo sapiens, UniProt P06276); test: Ellman method cholinesterase assay, hBChE; assay type: biochemical; conditions: 5-min pre-incubation; for RA ± SD (%) at 100 µM, hBChE: residual activity at 100 µM compound, RA above 50% considered inactive; for IC50: 3 independent experiments, read-out: IC50 ± SEM, hBChE
T3 construct: gift from Xavier Brazzolotto, Florian Nachon and José Dias (IRBA, Brétigny-sur-Orge, France)
Experimental: as §1, §4

hMAO-B [2] = biological target: T4, hMAO-B (Homo sapiens, UniProt P27338); test: HRP-Amplex Red coupled fluorimetric assay, hMAO-B; assay type: biochemical; conditions: 15 min incubation at 37 °C; 3 independent experiments; read-out: IC50 ± SEM, hMAO-B
T4 construct: purchased Sigma Aldrich; host or cells: BTI-TN-5B1-4 insect cells
T4 sequence (P27338 1-520): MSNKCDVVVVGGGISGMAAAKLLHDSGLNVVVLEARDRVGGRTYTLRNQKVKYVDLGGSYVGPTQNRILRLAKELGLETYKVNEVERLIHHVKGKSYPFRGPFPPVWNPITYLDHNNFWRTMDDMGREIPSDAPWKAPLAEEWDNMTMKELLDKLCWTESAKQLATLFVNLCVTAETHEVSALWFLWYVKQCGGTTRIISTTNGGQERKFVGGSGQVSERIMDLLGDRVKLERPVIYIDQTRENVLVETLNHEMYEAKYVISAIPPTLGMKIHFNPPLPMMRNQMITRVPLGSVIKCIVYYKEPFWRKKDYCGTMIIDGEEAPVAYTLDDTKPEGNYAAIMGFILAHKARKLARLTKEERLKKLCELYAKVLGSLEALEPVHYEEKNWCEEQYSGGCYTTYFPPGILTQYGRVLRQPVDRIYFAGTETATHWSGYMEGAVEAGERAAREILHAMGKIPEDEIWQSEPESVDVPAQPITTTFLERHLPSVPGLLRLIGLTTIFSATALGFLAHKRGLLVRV
Experimental: as §1, §2, §3

hMAO-B [3] = biological target: T4, hMAO-B; test: hMAO-B 100-fold dilution reversibility assay and IC50 shift at various pre-incubation times; assay type: biochemical; conditions: for Reversibility of hMAO-B inhibition: 100-fold dilution assay; for Time-dependence of hMAO-B inhibition (IC50 shift): various pre-incubation times
Experimental: as §3
The reversibility was analyzed by one-way ANOVA and post-hoc comparisons were made using two-tailed Student’s t-test. p < 0.05—statistically significant. All data are means ± SEM (n = 2).
Figure 5 (A) A 100-fold dilution assay for hMAO-B inhibitors 12–14. L-Deprenyl was used as an irreversible inhibitor control; safinamide and isatin were used as reversible inhibitor controls. Data are mean values ± SEM (n = 2; each in quadruplicate): ∗, p < 0.05 (one-way ANOVA, with Bonferroni correction, followed by t-tests).

hBChE [4] = biological target: T3, hBChE; test: hBChE time-dependency measurements (IC50 shift, varied pre-incubation time); assay type: biochemical; conditions: pre-incubation 1, 5, 15, 30 min
Experimental: as §4
Figure 7 The IC50 shift curves for compounds 13–15 during hBChE inhibition.

T2 sequence (P22303 32-614): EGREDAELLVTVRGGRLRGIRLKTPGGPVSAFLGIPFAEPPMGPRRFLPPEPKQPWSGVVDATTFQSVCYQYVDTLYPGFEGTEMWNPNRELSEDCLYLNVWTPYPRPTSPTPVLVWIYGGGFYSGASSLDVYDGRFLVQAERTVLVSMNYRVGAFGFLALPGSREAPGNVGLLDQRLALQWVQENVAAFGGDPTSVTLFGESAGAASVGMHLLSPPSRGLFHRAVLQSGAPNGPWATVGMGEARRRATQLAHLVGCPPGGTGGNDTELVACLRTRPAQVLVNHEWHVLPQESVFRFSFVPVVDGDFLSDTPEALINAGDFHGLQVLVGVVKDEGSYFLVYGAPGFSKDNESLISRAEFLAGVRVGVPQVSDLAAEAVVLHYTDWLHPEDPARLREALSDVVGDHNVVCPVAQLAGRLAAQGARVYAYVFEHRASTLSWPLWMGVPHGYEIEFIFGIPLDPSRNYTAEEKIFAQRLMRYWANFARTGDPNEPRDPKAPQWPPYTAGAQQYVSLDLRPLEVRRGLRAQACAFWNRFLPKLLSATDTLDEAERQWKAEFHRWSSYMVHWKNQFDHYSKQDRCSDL
T3 sequence (P06276 29-602): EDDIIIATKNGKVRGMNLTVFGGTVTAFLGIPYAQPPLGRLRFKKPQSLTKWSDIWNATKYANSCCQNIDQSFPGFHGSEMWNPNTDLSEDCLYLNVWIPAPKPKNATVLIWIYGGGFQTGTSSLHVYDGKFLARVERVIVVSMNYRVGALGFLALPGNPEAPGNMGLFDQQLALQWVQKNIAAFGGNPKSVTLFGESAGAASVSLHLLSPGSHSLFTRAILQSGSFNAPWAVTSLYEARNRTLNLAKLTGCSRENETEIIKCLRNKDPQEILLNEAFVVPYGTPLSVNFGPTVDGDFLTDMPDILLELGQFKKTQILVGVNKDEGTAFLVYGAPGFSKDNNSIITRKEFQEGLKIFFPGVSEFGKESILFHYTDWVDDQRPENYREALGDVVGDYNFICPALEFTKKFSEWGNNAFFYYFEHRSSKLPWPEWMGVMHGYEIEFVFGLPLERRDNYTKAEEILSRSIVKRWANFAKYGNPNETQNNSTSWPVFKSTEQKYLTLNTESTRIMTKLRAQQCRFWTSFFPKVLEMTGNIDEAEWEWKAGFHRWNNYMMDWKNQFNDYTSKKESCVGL

Row | SMILES | MAO-B inhibition, type (MAO-B) | remaining activity at 100 µM (hMAO-A) | remaining activity at 100 µM (hAChE) | RA ± SD (%) at 100 µM, hBChE (hBChE [1]) | IC50 (hMAO-B [2]) | IC50 (hMAO-A) | Reversibility of hMAO-B inhibition (hMAO-B [3]) | Time-dependence of hMAO-B inhibition (IC50 shift) (hMAO-B [3]) | IC50 (hBChE [1]) | Time-dependence of hBChE inhibition (IC50 shift) (hBChE [4])
1 | C#CCN1CCC(/C=C/c2ccc(F)cc2)CC1 [A] | potent and irreversible MAO-B inhibitor | – | – | – | – | – | – | – | – | –
2 | C#CCN1CCC(/C=C/c2ccc(OC)cc2)CC1 [Compound 6, (E)-4-(4-methoxystyryl)-1-(prop-2-yn-1-yl)piperidine] | – | 52.6 ± 0.7% | 61.9 ± 1.2% | 68.8 ± 0.6% | – | – | – | – | – | –
3 | C#CCN1CCC(CCc2ccc(OC)cc2)CC1 [Compound 7, 4-(4-methoxyphenethyl)-1-(prop-2-yn-1-yl)piperidine] | – | 62.2 ± 1.8% | 73.1 ± 4.3% | 51.2 ± 1.6% | – | – | – | – | – | –
4 | C#CCN1CCC(CCc2cccc(OC)c2)CC1 [Compound 8, 4-(3-methoxyphenethyl)-1-(prop-2-yn-1-yl)piperidine] | – | 59.8 ± 3.7% | 73.2 ± 8.9% | 55.5 ± 0.2% | 0.238 ± 0.0269 µM | – | – | – | – | –
5 | C#CCN1CCC(/C=C/c2ccc(O)cc2)CC1 [Compound 9, (E)-4-(2-(1-(prop-2-yn-1-yl)piperidin-4-yl)vinyl)phenol] | – | – | 65.9 ± 3.1% | 64.9 ± 2.0% | 12.9 ± 1.1 µM | 15.5 ± 0.9 µM | – | – | – | –
6 | C#CCN1CCC(CCc2ccc(O)cc2)CC1 [Compound 10, 4-(2-(1-(prop-2-yn-1-yl)piperidin-4-yl)ethyl)phenol] | – | – | 61.4 ± 2.7% | 53.8 ± 0.6% | – | 34 ± 5.8 µM | – | – | – | –
7 | C#CCN1CCC(CCc2cccc(O)c2)CC1 [Compound 11, 3-(2-(1-(prop-2-yn-1-yl)piperidin-4-yl)ethyl)phenol] | – | 63.3 ± 0.4% | 54.7 ± 2.9% | 72.9 ± 2.8% | 52.5 ± 14.8 µM | – | – | – | – | –
8 | C#CCN1CCC(CCc2ccc(OC(=O)Nc3ccccc3)cc2)CC1 [Compound 12, 4-(2-(1-(prop-2-yn-1-yl)piperidin-4-yl)ethyl)phenyl phenylcarbamate] | – | 56.7 ± 0.9% | 52.2 ± 1.7% | 60.2 ± 1.8% | 9.7 ± 1.2 µM | – | reversible | absence of IC50 shift; also recorded: did not exhibit time-dependent inhibition | – | –
9 | C#CCN1CCC(CCc2cccc(OC(=O)Nc3ccccc3)c2)CC1 [Compound 13, 3-(2-(1-(prop-2-yn-1-yl)piperidin-4-yl)ethyl)phenyl phenylcarbamate] | – | 54 ± 0.4% | 51.9 ± 1.4% | – | 23.6 ± 3 µM | – | reversible | absence of IC50 shift; also recorded: did not exhibit time-dependent inhibition | 4.4 ± 0.8 µM | IC50 shift was absent
10 | C#CCN1CCC(CCc2ccc(OC(=O)N(C)CC)cc2)CC1 [Compound 14, 4-(2-(1-(prop-2-yn-1-yl)piperidin-4-yl)ethyl)phenyl ethyl(methyl)carbamate] | – | 51.2 ± 1.5% | 66.1 ± 4.8% | – | 0.181 ± 0.0287 µM | – | irreversible | time-dependent hMAO-B inhibition | 75.5 ± 8.4 µM | IC50 shift was absent
11 | C#CCN1CCC(CCc2cccc(OC(=O)N(C)CC)c2)CC1 [Compound 15, 3-(2-(1-(prop-2-yn-1-yl)piperidin-4-yl)ethyl)phenyl ethyl(methyl)carbamate] | – | 69.4 ± 9.4% | 60.2 ± 1.8% | – | 4.3 µM and 8.5 µM | – | – | – | 8.5 µM and 4.3 µM | time-dependent inhibition
